Data taken from patent US9693982B2, “Composition for amelioration of hypoalbuminemia” (OTSUKA PHARMACEUTICAL FACTORY, INC., priority 2010, dated 2017).

System: albumin mRNA
Test: Albumin mRNA expression of cultured human hepatocytes (Experiment 1, real time RT-PCR)
Type: cell-based
Conditions: for Expression level of albumin mRNA (mean ± SD): 24 hours after addition, ratio based on HPRT1 mRNA (regarded as 1), human hepatocytes Lot 100, triplicate; for Effect on albumin mRNA expression level (in words): human hepatocytes, 20 mM, 60 mM
Procedure: In this test, human primary cultured hepatocytes were cultured by each test solution to check a change of albumin mRNA expressional potency and a change of secretion level of albumin. The test was performed as follows.
Albumin mRNA and HPRT1 mRNA were measured. The nucleotide sequences of albumin and HPRT1 are registered in the GenBank as follows and each nucleotide sequence follows the sequence registered.
Note that, HPRT1, which is a house keeping gene serving as a control, was measured in the same test. The sequences of primers and probes used in measurement of albumin are made public in Nishimura, M., Yoshitsugu, H., Yokoi, T., Tateno, C., Kataoka, M., Horie, T., Yoshizato, K. and Naito, S.: Evaluation of mRNA expression of human drug-metabolizing enzymes and transporters in chimeric mouse with humanized liver. Xenobiotica, 35: 877-890 (2005). Furthermore, the sequences of primers and probes used in measurement of HPRT1 are made public in Nishimura, M., Naito, S. and Yokoi, T.: Tissue-specific mRNA expression profiles of human nuclear receptor subfamilies. Drug Metab. Pharmacokinet., 19: 135-149 (2004).
Furthermore, mRNA was quantified by use of the primer pairs and probe represented by individual sequences (the position of initiation codon follows the each nucleotide sequence registered) shown in the following Table 1 and in accordance with RT-PCR (Real-time quantitative reverse transcription-polymerase reaction). Each of the primers and probe was prepared by an automatic DNA synthesizer.
As the test solution of the Livact composition, a Livact composition was dissolved such that the concentrations of Ile, Leu, and Val became 13.8 mM, 27.7 mM, and 18.5 mM, respectively after blending (60 mM as the concentration of the Livact composition test solution). Note that, in the dissolution procedure, a Livact composition was dissolved in Buffer A and then a medium was added in an amount 1/10 as low as that of Buffer A.
As an Ile, Leu or Val solution, Ile, Leu or Val was dissolved so as to have a concentration of 60 mM. Note that, in the dissolution procedure, Ile, Leu or Val was dissolved in Buffer A and then a medium was added in an amount 1/10 as low as that of Buffer A.
The Livact composition test solution prepared in Section (2-3) and Ile, Leu or Val solution prepared in Section (2-4) were diluted 3 fold with Buffer B to prepare a 20 mM solution.
According to a method of Nishimura et al. (Nishimura, M., Yoshitsugu, H., Naito, S. and Hiraoka, I.: Evaluation of gene induction of drug-metabolizing enzymes and transporters in primary culture of human hepatocytes using high-sensitivity real-time reverse transcription PCR. Yakugaku Zasshi, 122: 339-361 (2002)), 1×10^5 cells/400 μL was dispensed in each well of a 24 well plate and cultured in a CO2 incubator. After 3 hours, medium exchange was performed. Further after 21 hours (24 hours after inoculation), medium exchange was performed. Thereafter, the medium was exchanged every 24 hours. Note that, the amount of liquid medium to be exchanged was set at 400 μL/well. Furthermore, exchange to each test solution was performed at the after 48 hours at which medium exchange was performed.
After human hepatocytes (1×10^5 viable cells/0.4 mL/well) were inoculated, medium exchange was performed 3 hours and 24 hours after inoculation. Note that, the viability at the inoculating time was 90.4% (Lot 100). Then, 48 hours after inoculation, a test substance was added and 24 hours after addition of the test substance was initiated, Total RNA was extracted (using Rneasy Mini Kit). Quantification of mRNA of albumin and HPRT1 was performed by real time RT-PCR. Note that, HPRT1, which is a house keeping gene, was used as an internal standard.
After the medium was suctioned, Total RNA was extracted by use of QIA shredder and Rneasy Mini Kit. Now, a preparation method using the Kit will be described below. […]

CC(C)[C@H](N)C(=O)O [Val, Valine, reference compound]
Expression level of albumin mRNA (mean ± SD) (20 mM total test substance): 127 ± 17
Expression level of albumin mRNA (mean ± SD) (60 mM total test substance): 118 ± 10

CC(C)C[C@H](N)C(=O)O [Leu, Leucine]
Expression level of albumin mRNA (mean ± SD) (20 mM total test substance): 215 ± 63
Expression level of albumin mRNA (mean ± SD) (60 mM total test substance): 255 ± 53
Effect on albumin mRNA expression level (in words): increases in an additive manner

CC[C@H](C)[C@H](N)C(=O)O [Ile, Isoleucine]
Expression level of albumin mRNA (mean ± SD) (20 mM total test substance): 174 ± 33
Expression level of albumin mRNA (mean ± SD) (60 mM total test substance): 222 ± 27
Effect on albumin mRNA expression level (in words): increases in an additive manner
